Patent publication US20050049204A1, “Compounds for the treatment of flaviviridae infections” (priority 2003, published 2005)
Where a name gives a salt, the structure may show the parent alone. Read-outs that look alike come from different tables or passages of the source.

Experiments:
[1] = system: rRNA in HCV-replicon RNA-containing Huh7 cells; assay: rRNA levels in HCV replicon cells (cellular toxicity), Q-RT-PCR after 96 h
Procedure: HCV replicon cells were seeded in the presence of test compound at approximately 10^3 cells per well in a 96-well plate and incubated for 96 hours. rRNA and HCV RNA were quantified by Q-RT-PCR. ●: HCV RNA levels; ◯: rRNA levels; ▾: HCV RNA levels after correction (=subtraction of rRNA) for cellular toxicity. […] The plots shown are the mean results of at least three independent experiments. EC90 values as given in Table 1 are read from the HCV curves corrected for cellular toxicity.
HCV-replicon RNA-containing Huh7 cells (Clone A cells; Apath, LLC, St. Louis, Mo.) were kept in exponential growth in DMEM media (high glucose, no pyruvate) containing 10% fetal bovine serum, 1× non-essential amino acids (100 units/ml), penicillin-streptomycin (100 μg/ml), glutamine (0.292 mg/ml), and G418 (1,000 μg/ml). Antiviral assays were performed in the same medium without G418. […] Cells were seeded in a 6-well plate at 10^5 cells per well. Candidate antiviral compounds were tested as described (Stuyver, et al. “A ribonucleoside analogue that blocks the replication of bovine viral diarrhea and hepatitis C viruses in culture” Antimicrob. Agents Chemother., January 2003, 47 (1), 244-254). Incubation times differed according to the type of experiment. At the end of the incubation step, cells were counted using the trypan-blue exclusion method, and total cellular RNA was isolated (Rneasy 96 kit, Qiagen, CA). Replicon RNA and an internal control (TaqMan Ribosomal RNA Control Reagents, Applied Biosystems, CA) were amplified in a single-step, multiplex RT-PCR protocol, as recommended by the manufacturer and as described (Stuyver, et al. “A ribonucleoside analogue that blocks the replication of bovine viral diarrhea and hepatitis C viruses in culture” Antimicrob. Agents Chemother., January 2003, 47 (1), 244-254).
Replicon cells were incubated in the absence or presence of these anti-metabolites for 96 hours, after which intracellular rRNA and HCV RNA levels were quantified (Table 1).

[2] = system: HCV-replicon RNA-containing Huh7 cells (HCV RNA); assay: HCV replicon assay: HCV RNA quantified by Q-RT-PCR after 96 h of compound exposure; format: cell-based, hepatitis C virus (HCV); details: for EC90: read-out: Corrected HCV RNA EC90; for effect on cytoplasmic HCV RNA metabolism: replicon system; for log reduction at 10 µM: read-out: Corrected HCV RNA log10 reduction at 10 μM; for specific inhibition of the replicon: RNR inhibitors tested
Procedure: (§1) Incubation times differed according to the type of experiment.

[3] = system: HCV replicon RNA in Huh7 cells; assay: Reversal studies with natural nucleosides: HCV RNA; format: cell-based, hepatitis C virus (HCV); details: for log10 reduction HCV: no nucleoside
Procedure: as §1
(§2) Cells were incubated with the test compound and, simultaneously, the natural ribo- or 2′-deoxy nucleosides (adenosine, guanosine (G), cytidine (C), uridine (U), 2′-deoxycytidine (dC), 2′-deoxyuridine, thymidine, 2′-deoxyguanosine (dG), and 2′-deoxyadenosine) (Table 2).

[4] = system: rRNA in HCV replicon Huh7 cells; assay: Reversal studies with natural nucleosides: rRNA; format: cell-based; details: for log10 reduction rRNA: no nucleoside
Procedure: as §1, §2

[5] = 10 μM, 96 h, corrected by subtraction of rRNA
[6] = 100 μM, 96 h, corrected by subtraction of rRNA
[7] = 96 h, read from HCV curves corrected for rRNA reduction
[8] = Hepatitis C virus, Huh-7, 96 h, read-out: Corrected HCV RNA log10 reduction at 100 μM
[9] = Hepatitis C virus, Huh-7, 96 h, read from HCV curves corrected for rRNA reduction

Molecule | Log10 RNA reduction (100 μM) rRNA [1] [log10] | Corrected HCV RNA log10 reduction at 10 μM [2, 5] [log10] | Log10 RNA reduction (100 μM) HCV ([2]; 100 μM, 96 h) [log10] | Corrected HCV RNA log10 reduction at 100 μM [2, 6] [log10] | EC90 [2, 9] [µM] | also measured
O=c1cnn([C@@H]2O[C@H](CO)[C@@H](O)[C@H]2O)c(=S)[nH]1 [2-thio-6-azauridine] | −0.02 ± 0.12 | 0.12 ± 0.10 | 0.16 ± 0.04 | 0.19 ± 0.09 |  | EC90 [2, 7]: > 100 µM; effect on cytoplasmic HCV RNA metabolism [2]: little effect
O=c1[nH]c(=O)n([C@H]2C[C@H](O)[C@@H](CO)O2)cc1F [2′-deoxy-5FU, 2′-deoxy-5-fluorouridine] | 0.73 ± 0.35 | 0.23 ± 0.05 |  |  | > 100 | log reduction at 100 µM [2, 8]: 0.04 ± 0.25
O=c1cnn([C@@H]2O[C@H](CO)[C@@H](O)[C@H]2O)c(=O)[nH]1 [6-aza uridine, 6-aza-uridine] | 0.61 ± 0.18 |  |  |  | > 100 | effect on cytoplasmic HCV RNA metabolism [2]: little effect
Nc1ccn([C@@H]2C=C(CO)[C@@H](O)[C@H]2O)c(=O)n1 [CPE-C, cyclopentenyl-cytosine] | 1.21 ± 0.16 |  |  |  | 2.5 | log10 reduction HCV including natural nucleoside ([3]; 2 μM + C at 50 μM): 0.30 ± 0.06 log10; log10 reduction HCV including natural nucleoside ([3]; 2 μM + U at 50 μM): 0.58 ± 0.04 log10; log10 reduction HCV ([3]; 2 μM): 1.76 ± 0.04 log10; log10 reduction rRNA including natural nucleoside ([4]; 2 μM + C at 50 μM): −0.04 ± 0.01 log10; log10 reduction rRNA including natural nucleoside ([4]; 2 μM + U at 50 μM): 0.32 ± 0.03 log10; log10 reduction rRNA ([4]; 2 μM): 0.99 ± 0.04 log10
COc1c(C)c2c(c(O)c1CCOP(=O)(O)CP(=O)(O)OC[C@H]1O[C@@H](n3cnc4c(N)ncnc43)[C@H](O)[C@@H]1O)C(=O)OC2 [Compound C2-MAD] | 1.00 ± 0.15 | 0.36 ± 0.21 | 1.09 ± 0.21 | 0.08 ± 0.24 |  | EC90 [2, 7]: > 100 µM
CC(=O)N(O)CCCCCNC(=O)CCC(=O)N(O)CCCCCNC(=O)CCC(=O)N(O)CCCCCN [Deferoxamine, deferoxamine mesylate] | 0.92 ± 0.08 |  |  |  | > 100 | log reduction at 10 µM ([2]; Hepatitis C virus, Huh-7, 96 h): 0.17 ± 0.11; log reduction at 100 µM ([2]; Hepatitis C virus, Huh-7, 100 μM, 96 h, corrected by subtraction of rRNA, read-out: Corrected HCV RNA log10 reduction at 100 μM): 0.08 ± 0.03; log reduction at 100 µM ([2]; Hepatitis C virus, Huh-7, 100 μM, 96 h, read-out: Log10 RNA reduction (100 μM) HCV): 1 ± 0.06; specific inhibition of the replicon [2]: none
Nc1n[nH]c(N)n1 [Guanazole, guanazole] | 0.07 ± 0.03 |  | 0.25 ± 0.11 | 0.32 ± 0.08 |  | EC90 ([2]; Hepatitis C virus, Huh-7, 96 h): > 100 µM; log reduction at 10 µM ([2]; Hepatitis C virus, Huh-7, 96 h): 0.05 ± 0.08; specific inhibition of the replicon [2]: none
NC(=O)NO [Hydroxy Urea, hydroxy urea] | 0.25 ± 0.20 |  |  |  | > 100 | log reduction at 100 µM [2, 8]: -0.08 ± 0.16; log reduction at 10 µM ([2]; Hepatitis C virus, Huh-7, 10 μM, 96 h, corrected by subtraction of rRNA): 0.06 ± 0.04; specific inhibition of the replicon [2]: none
COc1c(C)c2c(c(O)c1C/C=C(\C)CCC(=O)O)C(=O)OC2 [MPA, mycophenolic acid] | 1.09 ± 0.28 | 0.22 ± 0.01 |  |  | > 100 | log reduction at 100 µM [2, 8]: 0.07 ± 0.47
CN(Cc1cnc2nc(N)nc(N)c2n1)c1ccc(C(=O)N[C@@H](CCC(=O)O)C(=O)O)cc1 [Methotrexate, methotrexate] | 0.07 ± 0.10 | 0.15 ± 0.01 |  | 0.11 ± 0.09 | > 100 | 
NC(=O)c1ncn([C@@H]2O[C@H](CO)[C@@H](O)[C@H]2O)c1O [Mizoribine] | 0.21 ± 0.50 | −0.14 ± 0.12 |  |  | > 100 | log reduction at 100 µM [2, 8]: 0.08 ± 0.82
Nc1ccn(C2OC(CO)C(O)C2=CF)c(=O)n1 (stereo not drawn) [Tezacytabine, tezacytabine] | 1.78 ± 0.69 | 0.63 ± 0.07 | 1.59 ± 0.08 | −0.19 ± 0.49 |  | EC90 [2, 7]: > 100 µM; specific inhibition of the replicon [2]: none
NC(=O)c1csc([C@@H]2O[C@H](CO)[C@@H](O)[C@H]2O)n1 [Tiazofurin, tiazofurin] | 0.99 ± 0.35 |  | 0.86 ± 0.27 | −0.13 ± 0.37 |  | EC90 ([2]; Hepatitis C virus, Huh-7, 96 h): > 100 µM; log reduction at 10 µM ([2]; Hepatitis C virus, Huh-7, 96 h): 0.04 ± 0.1
Nc1ccn([C@@H]2O[C@H](CO)[C@@H](O)C2(F)F)c(=O)n1 [dFdC, difluorodeoxycytidine] |  | 1.32 ± 0.08 |  |  |  | Log10 RNA reduction rRNA ([1]; dFdC tested at 50 μM): 0.59 ± 0.05 log10; EC90 ([2]; Hepatitis C virus, Huh-7, 96 h): 0.17 µM; Corrected HCV RNA log10 reduction ([2]; dFdC tested at 50 μM, 96 h, corrected for rRNA): 1.29 ± 0.11 log10; log10 reduction HCV including natural nucleoside ([3]; 1 μM + dC at 50 μM): 0.06 ± 0.00 log10; log10 reduction HCV ([3]; 1 μM): 1.89 ± 0.07 log10; log10 reduction rRNA including natural nucleoside ([4]; 1 μM + dC at 50 μM): 0.07 ± 0.02 log10; log10 reduction rRNA ([4]; 1 μM): 0.52 ± 0.03 log10
Cyclopentyl-cytosine [CP-C] | 0.91 ± 0.13 | 0.64 ± 0.10 | 1.97 ± 0.38 | 1.06 ± 0.26 |  | EC90 [2, 7]: 25 µM; log10 reduction HCV including natural nucleoside ([3]; 20 μM + C at 50 μM): 0.11 ± 0.01 log10; log10 reduction HCV ([3]; 20 μM): 1.80 ± 0.07 log10; log10 reduction HCV including natural nucleoside ([3]; 100 μM + C at 50 μM): 0.32 ± 0.11 log10; log10 reduction HCV ([3]; 100 μM): 2.32 ± 0.08 log10; log10 reduction rRNA including natural nucleoside ([4]; 20 μM + C at 50 μM): 0.02 ± 0.00 log10; log10 reduction rRNA ([4]; 20 μM): 0.87 ± 0.08 log10; log10 reduction rRNA including natural nucleoside ([4]; 100 μM + C at 50 μM): 0.17 ± 0.01 log10; log10 reduction rRNA ([4]; 100 μM): 1.21 ± 0.02 log10
